Data from US6710030B1, “Contortrostain (CN) and methods for its use in preventing metastasis and other conditions” (University of Southern California, priority 1993, dated 2004).
Values joined by “and” are separate entries in the source; they are usually repeats but may differ in a detail not shown here. Equal entries are not always repeated.

Tests used:
T24 cells = experiment: Phosphotyrosine immunoblot, T24 cells; assay type: cell-based, human; conditions: pretreated 30 min, 10 nM contortrostatin
Method: (§1) Cell culture, preparation and stimulation—T24 cells were maintained in RPMI 1640 medium containing 5% fetal bovine serum, and MDA-MB-435 and 293 cells were maintained in Dulbecco's modified Eagle's medium with 10% serum at 37° C. in 5% CO2. Cells were washed with phosphate-buffered saline (PBS) and starved in the appropriate serum-free medium for 6 h at 37° C. Cells were detached by brief treatment with 0.05% trypsin/0.02% EDTA in PBS and collected by centrifugation, resuspended in soybean trypsin inhibitor (1 mg/ml in serum-free medium), and washed in 2% bovine serum albumin/serum-free medium. Cells were maintained in suspension for 1 h in 2% bovine serum albumin/serum-free medium at 37° C. with end-over-end agitation. Quiescent cells (3×10^6/ml) were treated with disintegrins or other reagents while in suspension, or were allowed to adhere to Matrigel (Becton Dickinson, Bedford, Mass.) diluted 1:100 with serum-free medium during treatment.
Lysate preparation and immunoprecipitation—Suspended and adherent cells were washed twice with cold PBS and lysed in cold lysis buffer (50 mM Tris, pH 8.0, 150 mM NaCl, 1% Nonidet P-40, 0.5% deoxycholate, 0.1% SDS, protease inhibitor cocktail, 1 mM sodium pyrophosphate, 1 mM sodium orthovanadate, 50 mM sodium fluoride). […]

MDA-MB-435 cells [1] = experiment: Phosphotyrosine immunoblot, MDA-MB-435 cells; assay type: cell-based, human
Method: as §1
Lysate preparation and immunoprecipitation—Suspended and adherent cells were washed twice with cold PBS and lysed in cold lysis buffer (50 mM Tris, pH 8.0, 150 mM NaCl, 1% Nonidet P-40, 0.5% deoxycholate, 0.1% SDS, protease inhibitor cocktail, 1 mM sodium pyrophosphate, 1 mM sodium orthovanadate, 50 mM sodium fluoride). After 10-15 min incubation on ice, insoluble material was removed by centrifugation at 14,000 RPM in a microcentrifuge for 15 min. Supernatants were collected and total protein concentrations standardized by the BCA protein assay (Pierce, Rockford, Ill.). Immunoprecipitation was carried out by incubating whole cell lysates (200 μg total protein) with 1.25 μg anti-FAK or anti-CAS mAb 4-6 h at 4° C. followed by 20 μl protein G-agarose overnight at 4° C. Immunoprecipitates were washed 4 times in lysis buffer without inhibitors and dissociated by adding SDS-PAGE sample buffer and boiling 5 min. Whole cell lysates (30 μg total protein) or immunoprecipitates were resolved by 7.5% SDS-polyacrylamide gel electrophoresis and transferred to nitrocellulose membranes. […]

MDA-MB-435 cells [2] = experiment: Binding of MDA-MB-435 cells to immobilized CN; assay type: cell-based, human; conditions: CN at 0.1 μg/well; read-out: IC50 for blocking binding of MDA-MB-435 cells to immobilized CN
Method: The effect of CN on binding of highly metastatic human breast cancer cells, MDA-MB-435 cell line, to ECM proteins was examined. Human fibronectin and vitronectin were immobilized in the wells of 96-well microtiter plates. […] In a variation of the above experiments, CN was immobilized. […] Referring to FIGS. 12 and 13, varying concentrations of GRGDSP (FIG. 12) or EDTA (FIG. 13) were used to inhibit binding of human mammary carcinoma cells to immobilized CN. CN was at 0.1 μg/well. The vertical line at each data point indicates the y-axis error bar. All experiments were conducted as three sets of triplicates for each data point.

[3] = test system: acute thrombotic reocclusion; conditions: added to heparin plus tPA; cited from earlier work
[4] = test system: canine carotid artery thrombosis model; experiment: Reoccluding canine carotid artery thrombosis model; assay type: in vivo
Text: The model of carotid artery thrombosis in the anesthetized canine described is a modification of one developed for the study of experimentally-induced coronary artery thrombosis [Romson, J. L. et al., Thromb. Res. 17:841 (1980)]. The experimental procedure results in the formation of a platelet rich intravascular thrombus at the site of an electrolytically-induced endothelial lesion in proximity to a distal arterial stenosis. The carotid artery is selected for the experimental model, thereby allowing one vessel to be used as a control and the other to be used after administration of the thrombolytic and antithrombotic therapy. APSAC (anisoylated plasminogen streptokinase activator complex) has been used as the thrombolytic agent successfully in this model. […] The lytic-antithrombotic combination of agents may then be administered to only one of the occluded vessels; this allows for an internal control and eliminates those animals that may not form thrombi due to causes unrelated to the vessel wall injury and subsequent occlusive thrombus formation, i.e., low circulating platelet counts, enhanced spontaneous thrombolysis, presence of heart worms, etc. Parameters which are recorded include repeated measures of: phasic and mean carotid artery blood flow velocity using an ultrasonic flow probe, time to thrombotic occlusion, time to recannulization, ex vivo platelet aggregation, prothrombin time, thrombin time, activated partial thromboplastin time, red cell and white cell counts, hematocrit, EKG profile and body temperature, before and after administration of APSAC or APSAC plus CN to separate groups of animals.
Conditioned male mongrel dogs (8-10 kg) have been used for all in vivo studies. Dogs are anesthetized with sodium pentobarbital, intubated and allowed to breath room air under positive pressure respiration. Arterial blood gasses and pH determinations are made every 45 minutes and appropriate adjustments made to maintain the blood gasses and arterial pH within normal limits. Both common carotid arteries and the right internal jugular vein are exposed. A catheter is inserted into the jugular vein for blood sampling and administration of the test drug. Arterial blood pressure is monitored from the cannulated femoral artery with the use of a blood pressure transducer. A Doppler flow probe is placed on each common carotid artery proximal to both the point of insertion of the intraarterial electrode and the mechanical constrictor. […] Blood flow velocity in the carotid vessels is monitored continuously. […]
Electrolytic injury to the intimal surface of each carotid vessel is accomplished with the use of an intravascular electrode. […] The current delivered to each vessel is monitored continuously and maintained at 300 μA. […]

platelets = conditions: measured by e.g. serotonin release from dense granules; cited from earlier work
[5] = test system: coronary artery thrombosis; conditions: with recombinant tPA and heparin; cited from earlier work

Cc1ccc(-c2nn(C(C)(C)C)c3ncnc(N)c23)cc1 [PP1, reference compound]
concentration for complete elimination of contortrostatin-induced signals (T24 cells): 100 µM
concentration for complete inhibition of contortrostatin-induced tyrosine phosphorylation (MDA-MB-435 cells [1]; pretreated 30 min, 10 nM contortrostatin): 10 µM

O=C(O)CN(CCN(CC(=O)O)CC(=O)O)CC(=O)O [EDTA]
IC50 (MDA-MB-435 cells [2]): 800 µM

echistatin (QCESGPCCRNCKFLKEGTICKRARGDDMDDYCNGKTCDCPRNPHKGPAT) [reference compound]
incidence of acute thrombotic reocclusion [3]: dramatic reductions in the incidence of acute thrombotic reocclusion
effect on contortrostatin (10 nM)-induced tyrosine phosphorylation (MDA-MB-435 cells [1]; 1 μM, added simultaneously, 10 min): completely abrogated
effect alone on tyrosine phosphorylation (MDA-MB-435 cells [1]; concentrations up to 1 μM): no effect on tyrosine phosphorylation

anisoylated plasminogen streptokinase activator complex [APSAC]
RCA Thrombus, weight of residual thrombus, individual dog ([4]; Dog # 1-6, listed as APSAC Control): 27.3 mg and 47.6 mg and 90.5 mg and 60.1 mg and 67.5 mg and 78.5 mg
carotid artery patency after infusion ([4]; dog, in vivo): reoccluded and remained closed for the duration of the study
RCA Thrombus, weight of residual thrombus, Mean ([4]; group mean): 61.9 mg
Thrombus weight per kg (dog weight) ([4]; group mean): 4.1

applaggin
platelet release (platelets): also inhibits platelet release

kistrin
effective dose sufficient to prevent reocclusion [5]: 4 µg/kg/min
